Patent US11433090B2, “mTOR-inhibitor-containing medicine for treating or preventing ophthalmic symptoms, disorders, or diseases, and application thereof” (The Doshisha, priority 2017, dated 2022)

Legend:
fibronectin = assay: Western blot of fibronectin production induced by TGF-β2 in iFECD; format: cell-based, human; details: 3 pmol mTOR siRNA, then TGF-β2 10 ng/ml 24 h, FIG. 9
Procedure: (§1) The medium was removed from a culture dish in which iFECDs were being cultured, and the cells were supplemented with 1×PBS (−) that was preheated to 37° C., and were washed. This was repeated twice. The cells were supplemented again with 1×PBS (−) and incubated for 3 minutes at 37° C. (5% CO2). After removing the PBS (−), the cells were supplemented with 0.05% Trypsin-EDTA (Nacalai Tesque, 32778-34) and incubated for 5 minutes at 37° C. (5% CO2). The cells were then suspended in a medium, and collected by centrifugation at 1500 rpm for 3 minutes. DMEM (Nacalai Tesque, 08456-36)+10% FBS (Biowest, S1820-500)+1% P/S (Nacalai Tesque, 26252-94) was used as the medium.
iFECDs were seeded on a 6-well plate at a ratio of 2×10^5 cells per well and cultured for 24 hours at 37° C. (5% CO2) (DMEM+10% FBS+1% P/S was used as the medium). After 24 hours, the medium was removed. Rapamycin was added to culture the cells for 24 hours. (DMEM+2% FBS+1% P/S was used as the medium). After 24 hours, the medium was removed. A medium containing 10 ng/ml of Recombinant Human TGF-β2 (Wako, 200-19911) and rapamycin was added to culture the cells for 24 hours. […]
5 μg of the extracted protein was separated by SDS-PAGE and transferred onto a nitrocellulose membrane. […] The detected band strength was analyzed with a lumino image analyzer LAS-4000 mini (Fuji Film) and ImageQuant™ software (GE Healthcare). […]

iFECD = assay: Cell damage induced by TGF-β2 in iFECD, phase contrast microscopy; format: cell-based, human; details: 3 pmol mTOR siRNA with Lipofectamine, then TGF-β2 10 ng/ml 24 h, FIG. 7
Procedure: as §1
iFECDs were seeded on a 12-well plate at a ratio of 1×10^5 cells per well and cultured for 24 hours at 37° C. (5% CO2) (DMEM+10% FBS+1% P/S was used as the medium). After 24 hours, the medium was removed. Rapamycin was added to culture the cells for 24 hours. (DMEM+2% FBS+1% P/S was used as the medium). After 24 hours, the medium was removed. A medium containing 10 ng/ml of Recombinant Human TGF-β2 (Wako, 200-19911) and rapamycin was added to culture the cells for 24 hours. (DMEM+2% FBS+1% P/S was used as the medium). After 24 hours, the cell morphology and apoptosis were observed under a phase contrast microscope.
iFECDs were seeded on a 12-well plate at a ratio of 3×10^4 cells per well and cultured for 24 hours at 37° C. […]

“mTOR siRNA: siRNA against mTOR gene (Ambion, AS026M0L); sense strand SEQ ID NO: 1, antisense strand SEQ ID NO: 2 (sense CAUUCGCAUUCAGUCCAUATT; antisense UAUGGACUGAAUGCGAAUGAT; chemistry not given here)” was tested, and the “production of fibronectin induced by TGF-β2, western blot” value (fibronectin) was “hardly observed” and the “damage to corneal endothelial cells induced by Recombinant Human TGF-β2” value (iFECD) was “suppressed”.
